Measured values published in patent US12564559B2, “Combinations of LSD1 inhibitors for use in the treatment of solid tumors” (Oryzon Genomics, S.A., priority 2016, dated 2026).
Where two headings read alike, the source gives them in different places.

Experiments:
NCI-H526 model = test: NCI-H526 xenograft model, combination with etoposide and carboplatin (Example 4, FIG. 2B); assay type: in vivo, nu/nu mice; settings: added at 20 upk 5/2 for three weeks to SOC (etoposide + carboplatin)
Protocol: 8-12-week old nu/nu mice were injected with 1×10^7 H526 cells or […] SHP-77 resuspended in 100 μL of 1:1 mixture of Matrigel® and PBS. Tumors were staged at 100-150 mm^3 animals and distributed into dosing groups. […] Carboplatin was administered i.p. at a dose of 100 mpk weekly for three weeks (qwkx3). […] Tumor volume was measure biweekly using a digital caliber. The endpoint of the experiment was a tumor volume of 1000 mm^3 or 90 days, whichever came first. Statistical analysis was performed using unpaired t-test and Gehan-Breslow-Wilcoxon test.

H510A xenograft model = test: NCI-H510A xenograft model, in vivo tumor growth inhibition (Example 9, FIG. 9); design: species or system athymic nude mice; settings: 40 μg per kg five days on/two days off; after 21 days of dosing; compared to untreated controls
Protocol: 7-8-week old athymic nude mice animals were injected with 5×10^6 H510A cells resuspended in 100 μL of 1:1 mixture of Matrigel® matrix (Corning Inc., Tewksbury/MA, C. S. Hughes et al.^113) and PBS. Tumors were staged at 200-300 mm^3 animals and distributed into dosing groups. […] Tumor volume was measure biweekly using a digital caliber. The study was concluded when mean tumor volume within control group reached 2000 mm^3 or 28 days post-staging. Statistical analysis was performed using unpaired t-test.

NCI-H510 = test: Growth Inhibition (ATPLite), SCLC cell line treated for 7 days (Example 1); assay type: cell-based, human; settings: NCI-H510, “classic” neuroendocrine, FIG. 1B
Protocol: (§1) Once cells have been expanded and divided at their expected doubling times, screening was started. Cells were seeded in growth media in black 384-well tissue culture treated plates at 500 cells per well (except where noted in Analyzer). Cells were equilibrated in assay plates via centrifugation and placed in incubators attached to the Dosing Modules at 37° C. for twenty-four hours before treatment. […] These Tzero (T0) plates were read using ultra-sensitive luminescence on Envision Plate Readers.

NCI-H1876 [1] = test: as above; assay type: cell-based, human; settings: NCI-H1876, “classic” neuroendocrine, FIG. 1A
Protocol: as §1

NCI-H2171 = test: Cell response to LSD1 inhibition, SCLC cell line cultured 4 days (Example 5); assay type: cell-based, human; settings: NCI-H2171, SubType V; for EC50: Homo sapiens, 96 h
Source text: (§2) As a positive control for cytotoxicity the Hsp90 inhibitor 17-N-allylamino-17-demethoxygeldanamycin (17-AAG, a geldanamycin analogue) was used as positive control in serial dilution.

NCI-H748 = test: as above; assay type: cell-based, human; settings: NCI-H748, SubType C; for EC50: Homo sapiens, 96 h
Source text: as §2

NCI-H146 = test: as above; assay type: cell-based, human; settings: NCI-H146, SubType C; for EC50: Homo sapiens, 96 h
Source text: as §2

NCI-H187 = test: as above; assay type: cell-based, human; settings: NCI-H187, SubType C; for EC50: Homo sapiens, 96 h
Source text: as §2

NCI-H345 = test: as above; assay type: cell-based, human; settings: NCI-H345, SubType C; for EC50: Homo sapiens, 96 h
Source text: as §2

NCI-H82 = test: as above; assay type: cell-based, human; settings: NCI-H82, SubType V; for EC50: Homo sapiens, 96 h
Source text: as §2

NCI-H526 = test: as above; assay type: cell-based, human; settings: NCI-H526, SubType V; for EC50: Homo sapiens, 96 h
Source text: as §2

NCI-H2029 = test: as above; assay type: cell-based, human; settings: NCI-H2029, SubType (C); for EC50: Homo sapiens, 96 h
Source text: as §2

NCI-H1048 = test: as above; assay type: cell-based, human; settings: NCI-H1048, SubType V; for EC50: Homo sapiens, 96 h
Source text: as §2

DMS-114 = test: as above; assay type: cell-based, human; settings: DMS-114, SubType V; for EC50: Homo sapiens, 96 h
Source text: as §2

NCI-H2081 = test: as above; assay type: cell-based, human; settings: NCI-H2081, SubType C; for EC50: Homo sapiens, 96 h
Source text: as §2

NCI-H446 = test: as above; assay type: cell-based, human; settings: NCI-H446, SubType V; for EC50: Homo sapiens, 96 h
Source text: as §2

SHP-77 = test: as above; assay type: cell-based, human; settings: SHP-77, SubType V(C); for EC50: Homo sapiens, SHP77, 96 h
Source text: as §2

NCI-H1417 = test: as above; assay type: cell-based, human; settings: NCI-H1417, SubType C; for EC50: Homo sapiens, 96 h
Source text: as §2

SBC-5 = test: as above; assay type: cell-based, human; settings: SBC-5, SubType (V); for EC50: Homo sapiens, 96 h
Source text: as §2

NCI-H510A = test: as above; assay type: cell-based, human; settings: SubType C; for EC50: Homo sapiens, 96 h
Source text: as §2

NCI-H69 = test: as above; assay type: cell-based, human; settings: NCI-H69, SubType C; for EC50: Homo sapiens, 96 h
Source text: as §2

NCI-H2227 = test: as above; assay type: cell-based, human; settings: NCI-H2227, SubType C; for EC50: Homo sapiens, 96 h
Source text: as §2

NCI-H1876 [2] = test: as above; assay type: cell-based, human; settings: NCI-H1876, SubType C; for EC50: Homo sapiens, 96 h
Source text: as §2

[3] = read-out: Sensitivity to LSD1 inh.

Structure (SMILES): N[C@H]1CC[C@H](N[C@@H]2C[C@H]2c2ccccc2)CC1 [listing 1 of 2 here]
- duration of tumor regression (NCI-H526 model): improved the duration of tumor regression
- delay of tumor regrowth (NCI-H526 model; after the suspension of dosing): 30 days
- tumor growth inhibition (H510A xenograft model): 34%
- sensitivity of cell line to the compound (NCI-H510): high level of sensitivity
- sensitivity of cell line to the compound (NCI-H1876 [1]): high level of sensitivity

Structure (SMILES): N[C@H]1CC[C@H](N[C@@H]2C[C@H]2c2ccccc2)CC1 [listing 2 of 2 here]
- EC50 (NCI-H2171; read-out: EC50): > 50 nM
- EC50 (NCI-H2171; [3]): ≥ 50 nM
- Max. Response (%) (NCI-H2171): 0%
- EC50 (NCI-H748; read-out: EC50): 0.3 nM
- EC50 (NCI-H748; [3]): < 50 nM
- Max. Response (%) (NCI-H748): 13%
- EC50 (NCI-H146; read-out: EC50): 0.1 nM
- EC50 (NCI-H146; [3]): < 50 nM
- Max. Response (%) (NCI-H146): 48%
- EC50 (NCI-H187; read-out: EC50): 0.136 nM
- EC50 (NCI-H187; [3]): < 50 nM
- Max. Response (%) (NCI-H187): 61%
- EC50 (NCI-H345; read-out: EC50): 0.0275 nM
- EC50 (NCI-H345; [3]): < 50 nM
- Max. Response (%) (NCI-H345): 7%
- EC50 (NCI-H82; read-out: EC50): > 50 nM
- EC50 (NCI-H82; [3]): ≥ 50 nM
- Max. Response (%) (NCI-H82): 0%
- EC50 (NCI-H526; read-out: EC50): 0.632 nM
- EC50 (NCI-H526; [3]): < 50 nM
- Max. Response (%) (NCI-H526): 35%
- EC50 (NCI-H2029; read-out: EC50): > 50 nM
- EC50 (NCI-H2029; [3]): ≥ 50 nM
- Max. Response (%) (NCI-H2029): 0%
- EC50 (NCI-H1048; read-out: EC50): > 50 nM
- EC50 (NCI-H1048; [3]): ≥ 50 nM
- Max. Response (%) (NCI-H1048): 27%
- Max. Response (%) (DMS-114): 0%
- EC50 (DMS-114; read-out: EC50): > 50 nM
- EC50 (DMS-114; [3]): ≥ 50 nM
- EC50 (NCI-H2081; read-out: EC50): 0.92 nM
- EC50 (NCI-H2081; [3]): < 50 nM
- Max. Response (%) (NCI-H2081): 10%
- EC50 (NCI-H446; read-out: EC50): > 50 nM
- EC50 (NCI-H446; [3]): ≥ 50 nM
- Max. Response (%) (NCI-H446): 7%
- EC50 (SHP-77; read-out: EC50): > 50 nM
- EC50 (SHP-77; [3]): ≥ 50 nM
- Max. Response (%) (SHP-77): 0%
- EC50 (NCI-H1417; read-out: EC50): 0.302 nM
- EC50 (NCI-H1417; [3]): < 50 nM
- Max. Response (%) (NCI-H1417): 77%
- EC50 (SBC-5; read-out: EC50): > 50 nM
- EC50 (SBC-5; [3]): ≥ 50 nM
- Max. Response (%) (SBC-5): 23%
- EC50 (NCI-H510A; read-out: EC50): 0.315 nM
- EC50 (NCI-H510A; [3]): < 50 nM
- Max. Response (%) (NCI-H510A): 68%
- EC50 (NCI-H69; read-out: EC50): 0.585 nM
- EC50 (NCI-H69; [3]): < 50 nM
- Max. Response (%) (NCI-H69): 44%
- EC50 (NCI-H2227; read-out: EC50): > 50 nM
- EC50 (NCI-H2227; [3]): ≥ 50 nM
- Max. Response (%) (NCI-H2227): 0%
- EC50 (NCI-H1876 [2]; read-out: EC50): 0.0432 nM
- EC50 (NCI-H1876 [2]; [3]): < 50 nM
- Max. Response (%) (NCI-H1876 [2]): 145%
